Format: in vivo, human
Conditions: for maximal mean blood (serum) level: single sublingual dose of Avidekel oil, 4 drops (6.4 mg Δ9-THC and 26 mg CBD), N=7, LC-MS/MS
Method: Blood samples were withdrawn at time 0 and after administration of Avidekel oil extract, a sublingual dose 4 drops. Blood samples were withdrawn in intervals of 15, 30, 45, 60 and 90 min., and 2, 3, 4, 5, and 6 h., and stored at −70° C. until analysis at NMS Labs using LC-MS/MS.
FIG. 2A-2D show mean cannabinoid blood levels after administration of a single dose of Avidekel oil (6.4 mg Δ^9-THC and 26 mg CBD).

[1] = single dose of Avidekel oil (6.4 mg Δ9-THC and 26 mg CBD), N=7

SMILES | mean blood level after the drop from the maximum (single dose of Avidekel oil (6.4 mg Δ9-THC and 26 mg CBD), N=7, within 6 h sampling period) [µg/mL] | maximal mean blood (serum) level [ng/mL] | mean blood level after 90 min [1] [µg/mL] | mean blood level reached during the 6 h period (still rising) [1] [µg/mL] | blood levels 6 h after administration [1]
CCCCCc1cc(O)c2c(c1)OC(C)(C)[C@@H]1CCC(CO)=C[C@@H]21 [11-Hydroxy Δ^9-THC] | 0.0019 ± 0.0011 | 4.5 ± 4.2 | – | – | –
C=C(C)[C@@H]1CCC(C)=C[C@H]1c1c(O)cc(CCCCC)cc1O [CBD, 2-[(1R,6R)-6-isopropenyl-3-1-yl]-5-pentylbenzene-1,3-diol, reference compound] | – | 6.2 ± 5.9 | – | – | –
CCCCCc1cc(O)c2c(c1)OC(C)(C)[C@@H]1CCC(C(=O)O)=C[C@@H]21 [Δ^9 Carboxy THC] | – | – | 0.0345 ± 0.0477 | 0.0755 ± 0.077 | –
CCCCCc1cc(O)c2c(c1)OC(C)(C)[C@@H]1CCC(C)=C[C@@H]21 [Δ^9-THC, (−)-(6aR,10aR)-6,6,9-Trimethyl-3-methylcyclohex-2-en-pentyl-6a,7,8,10α-tetrahydro-6H-benzo[c]chromen-1-ol, reference compound] | – | 2.3 ± 2.2 | – | – | typical to those after 24 hours of Cannabis washout

— US20190091198A1, “C[…] CANNABIS-BASED COMPOSITIONS AND METHODS FOR THE TREATMENT OF IN[…] THE GASTROINTESTINAL TRACT” (TO PHARMACEUTICALS LLC, priority 2016, published 2019)
